Data as given in US8835472B2, “Compounds, pharmaceutical compositions and uses thereof” (Boehringer Ingelheim International GmbH, priority 2010, dated 2014).

target: human ACC2 (Homo sapiens (Human), UniProt O00763); experiment: ACC2 assay, spectrophotometric 384 well assay (NADH-linked, coupled lactate dehydrogenase/pyruvate kinase reaction); type: biochemical; settings: hACC2 construct lacking the 128 N-terminal amino acids; 25° C., 340 nm over 15 minutes
Method in brief: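 Kinetic NADH-linked assay (pyruvate kinase/lactate dehydrogenase coupling) with baculovirus-expressed hACC2 missing its first 128 amino acids. Started with 500 μM ATP and 200 μM each NADH and acetyl-CoA; slope followed 15 min at 25 °C, pH 7.5. No-acetyl-CoA wells define 0%; IC50 by nonlinear regression.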

Sequence of human ACC2 (O00763 129-2458): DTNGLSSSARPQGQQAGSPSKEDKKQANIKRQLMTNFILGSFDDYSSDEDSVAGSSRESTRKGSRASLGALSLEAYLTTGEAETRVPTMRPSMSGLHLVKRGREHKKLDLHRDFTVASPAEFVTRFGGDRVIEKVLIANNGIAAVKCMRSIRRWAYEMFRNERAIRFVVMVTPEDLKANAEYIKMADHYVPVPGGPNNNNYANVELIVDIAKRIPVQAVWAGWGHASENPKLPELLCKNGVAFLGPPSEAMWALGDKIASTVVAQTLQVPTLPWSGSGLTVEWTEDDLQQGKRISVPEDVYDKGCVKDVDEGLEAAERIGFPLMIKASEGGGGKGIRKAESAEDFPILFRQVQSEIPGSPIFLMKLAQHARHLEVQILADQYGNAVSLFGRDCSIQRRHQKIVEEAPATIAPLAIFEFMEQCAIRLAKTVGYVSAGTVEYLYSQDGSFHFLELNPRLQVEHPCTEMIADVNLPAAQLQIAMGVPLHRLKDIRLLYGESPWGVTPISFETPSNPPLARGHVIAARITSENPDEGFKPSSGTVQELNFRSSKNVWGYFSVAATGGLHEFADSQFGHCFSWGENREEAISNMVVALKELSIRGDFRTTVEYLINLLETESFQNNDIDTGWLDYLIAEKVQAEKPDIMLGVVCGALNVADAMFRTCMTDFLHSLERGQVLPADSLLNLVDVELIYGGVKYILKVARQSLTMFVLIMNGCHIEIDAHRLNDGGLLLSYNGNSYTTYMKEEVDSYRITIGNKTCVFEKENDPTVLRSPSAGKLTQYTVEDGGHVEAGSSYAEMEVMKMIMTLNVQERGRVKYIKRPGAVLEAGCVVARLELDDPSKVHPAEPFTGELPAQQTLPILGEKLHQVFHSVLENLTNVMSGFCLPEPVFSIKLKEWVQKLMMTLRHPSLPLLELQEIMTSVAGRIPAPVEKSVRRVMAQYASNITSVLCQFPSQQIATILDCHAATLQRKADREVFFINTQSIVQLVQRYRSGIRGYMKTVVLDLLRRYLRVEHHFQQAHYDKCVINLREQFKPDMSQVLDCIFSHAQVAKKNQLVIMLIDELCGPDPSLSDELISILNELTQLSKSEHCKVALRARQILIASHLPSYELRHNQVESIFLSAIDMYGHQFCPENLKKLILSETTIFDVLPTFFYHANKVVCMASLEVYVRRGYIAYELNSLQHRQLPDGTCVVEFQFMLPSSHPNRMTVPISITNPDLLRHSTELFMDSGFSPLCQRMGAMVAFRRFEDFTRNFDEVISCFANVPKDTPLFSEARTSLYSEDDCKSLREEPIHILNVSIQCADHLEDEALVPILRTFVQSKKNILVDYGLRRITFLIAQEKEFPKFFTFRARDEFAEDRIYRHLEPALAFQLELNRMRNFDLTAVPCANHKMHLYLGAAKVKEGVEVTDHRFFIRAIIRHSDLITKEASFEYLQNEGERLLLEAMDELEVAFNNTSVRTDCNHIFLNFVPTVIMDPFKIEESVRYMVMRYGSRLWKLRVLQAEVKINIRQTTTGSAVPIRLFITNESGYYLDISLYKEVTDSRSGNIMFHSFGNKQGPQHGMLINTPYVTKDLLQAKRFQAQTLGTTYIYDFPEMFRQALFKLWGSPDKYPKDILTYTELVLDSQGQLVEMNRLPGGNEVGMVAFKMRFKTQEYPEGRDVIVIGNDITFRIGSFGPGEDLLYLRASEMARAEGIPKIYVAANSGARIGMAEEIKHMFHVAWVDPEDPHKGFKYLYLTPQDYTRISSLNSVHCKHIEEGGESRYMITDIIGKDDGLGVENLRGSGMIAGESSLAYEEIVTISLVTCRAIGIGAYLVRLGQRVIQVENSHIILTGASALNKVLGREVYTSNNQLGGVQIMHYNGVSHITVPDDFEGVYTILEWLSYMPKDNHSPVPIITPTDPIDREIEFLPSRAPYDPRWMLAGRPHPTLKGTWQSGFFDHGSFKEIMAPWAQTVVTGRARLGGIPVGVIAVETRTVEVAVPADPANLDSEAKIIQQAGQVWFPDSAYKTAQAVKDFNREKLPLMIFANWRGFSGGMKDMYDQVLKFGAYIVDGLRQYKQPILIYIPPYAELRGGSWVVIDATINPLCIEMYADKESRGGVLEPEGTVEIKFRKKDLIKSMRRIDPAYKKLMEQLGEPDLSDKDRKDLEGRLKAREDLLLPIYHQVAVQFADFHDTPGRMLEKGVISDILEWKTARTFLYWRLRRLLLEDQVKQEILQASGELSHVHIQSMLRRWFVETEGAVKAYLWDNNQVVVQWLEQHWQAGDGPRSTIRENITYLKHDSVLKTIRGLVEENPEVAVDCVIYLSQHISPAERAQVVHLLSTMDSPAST

IC50 [nM]	Structure (SMILES)
1500	CC(=O)NC(C)Cc1ccc(C#Cc2ccc(C(=O)NCC3CC3)cc2)cc1 (stereo not shown) [Example 8.6]
110	CCCOc1ccc(C#Cc2ccc(CC(C)NC(C)=O)cc2)c(C)c1 (stereo not shown) [Example 2.95]
760	CC(=O)NC(C)Cc1ccc(C#Cc2ccc(OC(F)F)cc2)cc1 (stereo not shown) [Example 2.7]
160	CC(=O)NC(C)CCc1ccc(C#Cc2ccc(OC3CCCC3)cc2)cc1 (stereo not shown) [Example 14.14]
780	CCOc1ccc(C#Cc2ccc(CC(C)NC(=O)CS(C)(=O)=O)cc2)cc1 (stereo not shown) [Example 4.15]
1200	CCOc1ccc(C#Cc2ccc(CC(COC)NC(C)=O)cc2)cc1 (stereo not shown) [Example 27.2]
260	CC(=O)NC(C)c1ccc(C#Cc2ccc(OCC(C)C)cc2)cc1 (stereo not shown) [Example 2.48]
420	CC(=O)NC(C)Cc1ccc(C#Cc2ccc(OCCc3cn[nH]c3)cc2)cc1 (stereo not shown) [Example 9.36]
220	CC(=O)NC(C)CCc1ccc(C#Cc2ccc(OCC(C)C)cc2)cc1 (stereo not shown) [Example 14.13]
880	CC(=O)NC(C)Cc1ccc(C#Cc2ccc3ccccc3c2)cc1 (stereo not shown) [Example 1.6]
940	CCOc1ccc(C#Cc2ccc(CC(C)NC(=O)c3cnon3)cc2)cc1 (stereo not shown) [Example 4.72]
80	CCOc1ccc(C#Cc2ccc(C[C@H](C)NC(C)=O)cc2)cn1 [Example 23.5]
1200	CC(=O)NC(C)Cc1ccc(C#Cc2ccc(Oc3ccncc3)cc2)cc1 (stereo not shown) [Example 10.2]
390	CCOC(=O)c1cccc(C#Cc2ccc(CC(C)NC(C)=O)cc2)c1 (stereo not shown) [Example 2.2]
230	COCCCOc1ccc(C#Cc2ccc(CC(C)NC(C)=O)cc2)cc1 (stereo not shown) [Example 9.30]
650	CC(=O)NC(C)Cc1ccc(C#Cc2ccc(OCC(C)C)cn2)cc1 (stereo not shown) [Example 23.12]
24700	CCOc1ccc(C#Cc2ccc(CC(C)NC(=O)c3ncn[nH]3)cc2)cc1 (stereo not shown) [Example 4.60]

IC50 [nM]	Structure (SMILES)
290	CC(=O)NC(C)Cc1ccc(C#Cc2ccc(C(C)C)cc2)cc1 (stereo not shown) [Example 1.22]
2500	CC(=O)NC(C)Cc1ccc(C#Cc2ccc(OC(C)c3ccncc3)cc2)cc1 (stereo not shown) [Example 9.25]
610	CC(=O)NC(C)Cc1ccc(C#Cc2ccc(OC(C)C)cn2)cc1 (stereo not shown) [Example 1.20]
720	COc1ccc(C#Cc2ccc(CC(C)NC(C)=O)cc2)cn1 (stereo not shown) [Example 2.22]
1500	CC(=O)NC(C)Cc1ccc(C#Cc2ccc(N(C)C)cc2)cc1 (stereo not shown) [Example 1.19]
11100	COCCNC(=O)c1cccc(C#Cc2ccc(CC(C)NC(C)=O)cc2)c1 (stereo not shown) [Example 8.27]
2600	CC(=O)NC(C)Cc1ccc(C#Cc2ccc(OCc3c[nH]cn3)cc2)cc1 (stereo not shown) [Example 9.38]
230	CCNC(=O)NC(C)Cc1ccc(C#Cc2ccc(OCC)cc2)cc1 (stereo not shown) [Example 6.3]
490	CCOc1ccc(C#Cc2ccc(CC(C)NC(=O)C3CCOC3)cc2)cc1 (stereo not shown) [Example 4.33]
5200	CCCOc1ccc(C#Cc2ccc(CC(C)NC(C)=O)cc2)c(C(N)=O)c1 (stereo not shown) [Example 2.90]
630	CC(=O)NC(C)Cc1ccc(C#Cc2ccc(OCc3cccnc3)cc2)cc1 (stereo not shown) [Example 9.42]
120	CC(=O)NC(C)Cc1ccc(C#Cc2ccc(Oc3ccccc3)cc2)cc1 (stereo not shown) [Example 2.16]
1500	CCOc1ccc(C#Cc2ccc(CC(C)NC(=O)C(C)O)cc2)cc1 (stereo not shown) [Example 4.5]
920	CCOc1ccc(C#Cc2ccc(CC(C)NC(=O)C3(C#N)CC3)cc2)cc1 (stereo not shown) [Example 4.63]
12200	CC(=O)NC(C)Cc1ccc(C#Cc2ccc(OC3CNC3)cc2)cc1 (stereo not shown) [Example 9.10]
8700	CCOc1ccc(C#Cc2ccc(CC(C)NC(=O)C(C)(C)F)cc2)cc1 (stereo not shown) [Example 4.49]
270	CCOc1cc(C#Cc2ccc(CC(C)NC(C)=O)cc2)ccn1 (stereo not shown) [Example 2.28]

The next lines start with the molecule.

Structure (SMILES)	IC50 [nM]
CC(=O)NC(C)Cc1ccc(C#Cc2ccc(C(=O)N3CCN(C)CC3)cc2)cc1 (stereo not shown) [Example 8.46]	11300
CC(=O)NC(C)Cc1ccc(C#Cc2ccnc(N(C)Cc3ccncc3)n2)cc1 (stereo not shown) [Example 11.2]	30000
CC(=O)NC(C)Cc1ccc(C#Cc2cnc(NCc3csc(C)n3)nc2)cc1 (stereo not shown) [Example 13.69]	5000
CCN(C)c1ncc(C#Cc2ccc(CC(C)NC(C)=O)cc2)cn1 (stereo not shown) [Example 13.3]	1000
CC(Cc1ccc(C#Cc2ccc(OC3CCCC3)nc2)cc1)NC(=O)C1CC1 (stereo not shown) [Example 2.66]	230
CCC(COC)Oc1ncc(C#Cc2ccc(CC(C)NC(C)=O)cc2)cn1 (stereo not shown) [Example 12.37]	1100
CCCOc1cc(C#Cc2ccc(CC(C)NC(=O)C3CC3)cc2)ccn1 (stereo not shown) [Example 14.44]	360
CC(=O)NC(C)Cc1ccc(C#Cc2cnc(OC3Cc4ccccc4C3)nc2)cc1 (stereo not shown) [Example 12.52]	430
COC(=O)c1ccc(C#Cc2ccc(CC(C)NC(C)=O)cc2)o1 (stereo not shown) [Example 3.17]	880
COc1cc(C#Cc2ccc(CC(C)NC(=O)C3CC3)cc2)ccn1 (stereo not shown) [Example 2.69]	2000
CC(=O)NC(C)Cc1ccc(C#Cc2ccnc(N(C)C3CCOC3)n2)cc1 (stereo not shown) [Example 11.31]	2000
CC(=O)NC(C)Cc1ccc(C#Cc2ccc(C(=O)N3CCCC3)c(C)c2)cc1 (stereo not shown) [Example 1.18]	990
CC(=O)NC(C)Cc1ccc(C#Cc2cnc(N3CCCCC3)nc2)cc1 (stereo not shown) [Example 13.7]	260
CCOc1ncc(C#Cc2ccc([C@H](C)NC(=O)C3CC3)cc2)cn1 [Example 12.66]	2100
CCCN(C)C(=O)c1cccc(C#Cc2ccc(CC(C)NC(C)=O)cc2)c1 (stereo not shown) [Example 8.25]	2400
CC(=O)NC(C)Cc1ccc(C#Cc2ccc3c(c2)OCC(C)(C)CO3)cc1 (stereo not shown) [Example 14.55]	120
CCOc1ccc(C#Cc2ccc([C@H](C)NC(=O)C3CC3)cc2)cc1 [Example 14.49]	320
COC(=O)NC(C)Cc1ccc(C#Cc2cnc(NC3CCCC3)nc2)cc1 (stereo not shown) [Example 13.35]	290
CC(=O)NC(C)Cc1ccc(C#Cc2cccc3ncccc23)cc1 (stereo not shown) [Example 2.4]	3300
CSc1ccc(C#Cc2ccc(C(C)NC(C)=O)cc2)cc1 (stereo not shown) [Example 2.101]	350
CC(=O)NC(C)c1ccc(C#Cc2ccc(OC3CCCC3)nc2)cc1 (stereo not shown) [Example 2.43]	450
CCCC(C)Nc1ncc(C#Cc2ccc(CC(C)NC(C)=O)cc2)cn1 (stereo not shown) [Example 13.15]	160
CCOc1ccc(C#Cc2ccc(C(C)NC(=O)C3(C)CC3)cc2)cc1 (stereo not shown) [Example 4.44]	1500
CC(=O)NC(C)Cc1ccc(C#Cc2cnc(NCC3CC3)nc2)cc1 (stereo not shown) [Example 13.10]	450
CC(=O)NC(C)Cc1ccc(C#Cc2ccc(-c3ccc(Cl)cc3)nn2)cc1 (stereo not shown) [Example 1.3]	690
CC(=O)NC(C)Cc1ccc(C#Cc2ccn(C(C)C)c(=O)c2)cc1 (stereo not shown) [Example 2.84]	5800
CC(Cc1ccc(C#Cc2cnc(NCc3cccnc3)nc2)cc1)NC(=O)C1CC1 (stereo not shown) [Example 13.46]	2700

Structure (SMILES)	IC50 [nM]
CCN(CC)c1nccc(C#Cc2ccc(CC(C)NC(C)=O)cc2)n1 (stereo not shown) [Example 11.49]	460
CC(=O)NC(C)Cc1ccc(C#Cc2cnc(NCCC(C)(C)C)nc2)cc1 (stereo not shown) [Example 13.83]	190
CCC(CC)Nc1ncc(C#Cc2ccc(CC(C)NC(C)=O)cc2)cn1 (stereo not shown) [Example 13.81]	330
CC(=O)N[C@@H](C)c1ccc(C#Cc2cnc(NC3CC3)nc2)cc1 [Example 13.90]	960
CC(CNC(=O)C1CC1)c1ccc(C#Cc2cnc(OC3CCC3)nc2)cc1 (stereo not shown) [Example 32.4]	810
CCOc1ccc(C#Cc2ccc(C(C)NC(=O)c3cocn3)cc2)cc1 (stereo not shown) [Example 4.54]	30000
CC(=O)NC(C)Cc1ccc(C#Cc2ccnc(OCC(C)C)n2)cc1 (stereo not shown) [Example 12.4]	980
CC(=O)NC(C)Cc1ccc(C#Cc2cnc(OC(C)CF)nc2)cc1 (stereo not shown) [Example 12.41]	520
CC(=O)NC(C)Cc1ccc(C#Cc2ccnc(NC(C)C)n2)cc1 (stereo not shown) [Example 11.7]	12700
CCOc1ccc(C#Cc2ccc(CN3CCCC3=O)cc2)cc1 [Example 16.2]	3200
CC(=O)NC(C)Cc1ccc(C#Cc2ccc(C(=O)N3CCOCC3)cc2)cc1 (stereo not shown) [Example 1.10]	5500
CC(=O)NC(C)Cc1ccc(C#Cc2ccc(C(=O)N3CCCC3)cc2)cc1 (stereo not shown) [Example 8.45]	1400
CC(Cc1ccc(C#Cc2cnc(OC3CCC3)nc2)cc1)NC(=O)C1CC1 (stereo not shown) [Example 12.22]	640
CC(=O)NC(C)Cc1ccc(C#Cc2ccnc(N3CCC4(CCC4)C3)n2)cc1 (stereo not shown) [Example 11.26]	430
COc1ncc(C#Cc2ccc(C(C)CNC(=O)c3cn[nH]c3)cc2)cn1 (stereo not shown) [Example 4.80]	7700
CC(=O)NC(C)Cc1ccc(C#Cc2ccc(-c3ccc(C)cc3)cn2)cc1 (stereo not shown) [Example 1.17]	390
CCCOc1ccc(C#Cc2ccc(CC(C)NC(=O)C3CC3)cc2)c(OC)c1 (stereo not shown) [Example 2.68]	250
CC(=O)NC(C)c1ccc(C#Cc2cnn(Cc3ccccc3)c2)cc1 (stereo not shown) [Example 2.105]	930
CC(=O)NC(C)Cc1ccc(C#Cc2cnc(NCc3ccccc3)nc2)cc1 (stereo not shown) [Example 13.6]	100
CC(Cc1ccc(C#Cc2cccc(OC(C)C)c2)cc1)NC(=O)C1CC1 (stereo not shown) [Example 14.32]	710
CC(=O)NC(C)Cc1ccc(C#Cc2cnc(NC(C)C)nc2)cc1 (stereo not shown) [Example 13.4]	170
CC(=O)NC(C)Cc1ccc(C#Cc2ccnc(N(C)c3ccccc3)n2)cc1 (stereo not shown) [Example 11.6]	930
COCC1CCCN1c1nccc(C#Cc2ccc(CC(C)NC(C)=O)cc2)n1 (stereo not shown) [Example 11.35]	2400
CCOc1ccc(C#Cc2ccc(C(C)NC(=O)Nc3ccc(N(C)C)cc3)cc2)cc1 (stereo not shown) [Example 6.1]	30000
CC(=O)NC(C)Cc1ccc(C#Cc2ccnc(N(C)C3CCC(O)CC3)n2)cc1 (stereo not shown) [Example 11.9]	4000
CC(=O)NC(C)Cc1ccc(C#Cc2cnc(NCC3CC3(C)C)nc2)cc1 (stereo not shown) [Example 13.67]	660
CCOc1ccc(C#Cc2ccc(C(C)NC(=O)C3CC3)cc2)cc1 (stereo not shown) [Example 4.41]	2000
